US8334268B2, “Insecticidal active ingredient combinations (formononetins + insecticides)” (priority 2006, dated 2012)

Tested on: Meloidogyne incognita
Test: Meloidogyne incognita test (MELGIN), gall formation on lettuce roots
Format: in vivo
Conditions: 0.5 mg ai/seed, lettuce seed dressing; nematicidal action by formation of galls; 100% = no galls
Method: To produce a suitable preparation of active compound, 1 part by weight of active compound is mixed with the stated amounts of solvent and emulsifier, and the concentrate is diluted with water to the desired concentration.
Lettuce seeds are dressed with the desired amount of formononetin. Vessels are filled with soil infected with mycorrhiza, active compound solution, Meloidogyne incognita egg/larvae suspension and the treated lettuce seeds. The lettuce seeds germinate and the plants develop. On the roots, galls are formed.
After the desired period of time, the nematicidal action is determined in % by the formation of galls. 100% means that no galls have been found; 0% means that the number of galls on the treated plants corresponds to that of the untreated control.

COc1ccc(-c2coc3cc(O)ccc3c2=O)cc1 [Formononetin of the formula (I), formononetin]
Effect in % after 21 d: 3.3%
